Each molecule was assayed against T1, GLP-1R (Homo sapiens, UniProt P43220) (assay: EC20 GLP-1(9-36) PAM cAMP assay: dose response of compound in the presence of fixed concentration of GLP-1(9-36)). Conditions: GLP-1R CRE-bla CHO-K1 cells, compound dose response with fixed concentration of GLP-1(9-36), read-out: EC20 GLP-1(9-36) PAM EC50.
T1 construct: host or cells: GLP-1R CRE-bla CHO-K1 cells
T1 sequence (P43220 24-463): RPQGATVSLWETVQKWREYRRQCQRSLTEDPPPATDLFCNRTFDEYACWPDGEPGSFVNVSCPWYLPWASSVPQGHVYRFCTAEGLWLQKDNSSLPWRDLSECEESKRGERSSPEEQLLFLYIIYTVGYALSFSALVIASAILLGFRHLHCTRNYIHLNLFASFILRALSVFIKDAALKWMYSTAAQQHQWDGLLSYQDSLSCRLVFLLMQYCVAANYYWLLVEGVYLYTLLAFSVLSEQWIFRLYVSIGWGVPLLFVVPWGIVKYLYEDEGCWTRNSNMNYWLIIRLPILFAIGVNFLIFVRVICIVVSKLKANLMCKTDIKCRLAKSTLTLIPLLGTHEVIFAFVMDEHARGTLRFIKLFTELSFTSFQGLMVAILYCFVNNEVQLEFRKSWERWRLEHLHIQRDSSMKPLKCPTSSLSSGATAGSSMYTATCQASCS
T1 sequence (P01275 100-127 partner limits assumed): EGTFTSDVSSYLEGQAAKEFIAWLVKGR
Assay type: cell-based
Method in brief: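 GLP-1R CRE-bla CHO-K1 cells treated 30 min at 37 °C with 12-point compound dose response plus fixed EC20 GLP-1(9-36), with IBMX, in HBSS/HEPES/0.1% BSA pH 7.4. Total cAMP measured by luminescent detection against standard curve; EC50 and Emax from non-linear regression.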
An EC50 of 2500 to 5000 nM was found for CCc1ccc(/C(C)=C/c2cnc(-c3ccc(C[C@H](NC(=O)c4ccc(C(C)(C)C)s4)C(=O)N[C@H](C)C(=O)O)cc3)nc2)cc1 [Compound 1266] in this work. An EC50 of less than 800 nM was found for CCC[C@H]1CC[C@H](C2CCN(c3cnc(-c4ccc(C[C@H](NC(=O)c5ccc(C(C)C)cc5)C(=O)N5CC(C(=O)O)C5)cc4)nc3)CC2)CC1 [Compound 1536] in this work. An EC50 of 800 to 2500 nM was found for CC[C@H]1CC[C@H](c2ccc(-c3cnc(-c4ccc(C[C@H](NC(=O)c5ccc(C(C)=O)cc5)C(=O)O)cc4)nc3)cc2)CC1 [Compound 1376] in this work. An EC50 of 2500 to 5000 nM was found for CC(C)CCCOc1ccc(-c2cnc(-c3ccc(C[C@H](NC(=O)c4ccc(CC(C)C)s4)C(=O)N4CC(C(=O)O)C4)cc3)nc2)cc1 [Compound 1234] in this work. An EC50 of less than 800 nM was found for C[C@@H](NC(=O)[C@H](Cc1ccc(-c2ncc(-c3ccc(-c4ccc(Br)cc4)cc3)cn2)cc1)NC(=O)c1ccc(C(C)(C)C)s1)C(=O)O [Compound 1293] in this work. An EC50 of 2500 to 5000 nM was found for CC(C)(C)c1ccc(C(=O)N[C@@H](Cc2ccc(-c3ncc(-c4ccc([C@H]5CC[C@@H](C)CC5)cc4)cn3)cc2)C(=O)O)s1 [Compound 1357] in this work. An EC50 of 800 to 2500 nM was found for CC[C@H]1CC[C@H](c2ccc(-c3cnc(-c4ccc(C[C@@H](NC(=O)c5ccc(C(C)(C)C)s5)C(=O)N[C@@H](C)C(=O)O)cc4)nc3)cc2)CC1 [Compound 1270] in this work. An EC50 of 800 to 2500 nM was found for CC[C@H]1CC[C@H](c2ccc(-c3cnc(-c4ccc(C[C@H](NC(=O)c5ccc(C(C)(C)C)s5)C(=O)N[C@H](C(=O)O)C(C)C)cc4)nc3)cc2)CC1 [Compound 1328] in this work. An EC50 of less than 800 nM was found for Cc1cccc(C2CCN(c3cnc(-c4ccc(C[C@H](NC(=O)c5ccc(C(C)(C)C)s5)C(=O)N5CC(C(=O)O)C5)cc4)nc3)CC2)c1 [Compound 1476] in this work. An EC50 of less than 800 nM was found for CC(C)(C)c1ccc(C(=O)N[C@@H](Cc2ccc(-c3ncc(-c4ccc(-c5ccc(C6CC6)cc5)cc4F)cn3)cc2)C(=O)N2CC(C(=O)O)C2)s1 [Compound 1209] in this work. An EC50 of 5000 to 10000 nM was found for C[C@@H](NC(=O)[C@H](Cc1ccc(-c2ncc(/C=C/c3cccc(F)c3)cn2)cc1)NC(=O)c1ccc(C(C)(C)C)s1)C(=O)O [Compound 1248] in this work. An EC50 of less than 800 nM was found for CCC[C@H]1CC[C@H](C2CCN(c3cnc(-c4ccc(CC(NC(=O)c5ccc(C(C)(C)C)s5)C(=O)NS(=O)(=O)CC5CC5)cc4)nc3)CC2)CC1 (stereo partly drawn) [Compound 1542] in this work. An EC50 of 800 to 2500 nM was found for CCOc1ccc(C(=O)N[C@@H](Cc2ccc(-c3ncc(-c4ccc(OCCCC(C)C)cc4)cn3)cc2)C(=O)N2CC(C(=O)O)C2)cc1 [Compound 1230] in this work. An EC50 of less than 800 nM was found for CCC[C@H]1CC[C@H](C2CC(=O)N(c3cnc(-c4ccc(C[C@H](NC(=O)c5ccc(C(C)(C)C)s5)C(=O)N5CC(C(=O)O)C5)cc4)nc3)C(=O)C2)CC1 [Compound 1512] in this work.

Same assay, conditions: dose response of compound in presence of fixed concentration of GLP-1(9-36), GLP-1R CRE-bla CHO-K1 cells, read-out: EC20 GLP-1(9-36) PAM EC50
An EC50 of 2500 to 5000 nM was found for CC(C)(C)c1ccc(C(=O)N[C@@H](Cc2ccc(-c3ncc(-c4ccc(OC(F)=C(F)F)cc4)cn3)cc2)C(=O)NCCC(=O)O)cc1 [Compound 691] in this work. An EC50 of 2500 to 5000 nM was found for COc1cc(-c2cnc(-c3ccc(C[C@H](NC(=O)c4ccc(C(C)(C)C)s4)C(=O)N[C@H](C)C(=O)O)cc3)nc2)ccc1OCc1ccccc1 [Compound 999] in this work. An EC50 of 800 to 2500 nM was found for CC(C)(C)c1ccc(C(=O)N[C@@H](Cc2ccc(-c3ncc(-c4ccc(OC5CCCC5)cc4)cn3)cc2)C(=O)N2CC(C(=O)O)C2)s1 [Compound 779] in this work. An EC50 of 800 to 2500 nM was found for CCCCCCCOc1ccc(-c2cnc(-c3ccc(C[C@H](NC(=O)c4ccc(C(C)(C)C)cc4)C(=O)N4CC[C@H](N)[C@@H](C(=O)O)C4)cc3)nc2)cc1 [Compound 582] in this work. An EC50 of 800 to 2500 nM was found for CCCCCCCOc1ccc(-c2cnc(-c3ccc(C[C@H](NC(=O)c4ccc(C(C)(C)C)cc4)C(=O)NC(CC(=O)O)c4ccc(OC)cc4)cc3)nc2)cc1 (stereo partly drawn) [Compound 552] in this work. An EC50 of 800 to 2500 nM was found for CCCCCCCOc1ccc(-c2cnc(-c3ccc(C[C@H](NC(=O)c4ccc(OCC)cc4)C(=O)NC(C(=O)O)C(O)c4ccccc4)cc3)nc2)cc1 (stereo partly drawn) [Compound 949] in this work. An EC50 of less than 800 nM was found for CCCCCCCOc1ccc(-c2cnc(-c3ccc(C[C@H](NC(=O)c4ccc(C(C)(C)C)s4)C(=O)N4CC(C(=O)O)C4)cc3)nc2)cc1 [Compound 635, (S)-1-(2-(5-(tert-butyl)thiophene-2-carboxamido)-3-(4-(5-(4-(heptyloxy)phenyl)pyrimidin-2-yl)phenyl)propanoyl)azetidine-3-carboxylic acid] in this work. An EC50 of 800 to 2500 nM was found for CCCCCCCOc1ccc(-c2cnc(-c3ccc(C[C@H](NC(=O)c4ccc(C(C)(C)C)s4)C(=O)NC[C@@H](CO)C(=O)O)cc3)nc2)cc1 [Compound 461] in this work. An EC50 of 5000 to 10000 nM was found for CC(C)(C)Cc1noc(-c2cnc(-c3ccc(C[C@H](NC(=O)c4ccc(C(C)(C)C)cc4)C(=O)NCCC(=O)O)cc3)nc2)n1 [Compound 744] in this work. An EC50 of less than 800 nM was found for CCCCCCCOc1ccc(-c2cnc(-c3ccc(C[C@H](NC(=O)c4ccc(C(C)(C)C)s4)C(=O)N[C@@H](CC(=O)O)C(N)=O)cc3)nc2)cc1 [Compound 525] in this work. An EC50 of 5000 to 10000 nM was found for CCCCCCCOc1ccc(-c2cnc(-c3ccc(C[C@H](NC(=O)c4ccc(C(C)(C)C)s4)C(=O)N[C@H](C(=O)O)[C@@H](N)c4ccccc4)cc3)nc2)cc1 [Compound 883] in this work. An EC50 of less than 800 nM was found for CCCCCCCOc1ccc(-c2cnc(-c3ccc(C[C@H](NC(=O)c4ccc(C(C)(C)C)s4)C(=O)N4CCC(F)(C(=O)O)C4)cc3)nc2)cc1 (stereo partly drawn) [Compound 652] in this work. An EC50 of 2500 to 5000 nM was found for C=CCCOc1ccc(-c2cnc(-c3ccc(C[C@H](NC(=O)c4ccc(C(C)(C)C)cc4)C(=O)NCCC(=O)O)cc3)nc2)cc1 [Compound 694] in this work. An EC50 of less than 800 nM was found for CCCCCCCOc1ccc(-c2cnc(-c3ccc(C[C@H](NC(=O)c4ccc(C(C)(C)C)s4)C(=O)N4CCC4C(=O)O)cc3)nc2)cc1 (stereo partly drawn) [Compound 599] in this work. An EC50 of less than 800 nM was found for CCCCCCCOc1ccc(-c2cnc(-c3ccc(C[C@H](NC(=O)c4ccc(C(C)(C)C)s4)C(=O)N4CCC(C(=O)O)CC4)cc3)nc2)cc1 [Compound 448] in this work. An EC50 of 800 to 2500 nM was found for C[C@@H](NC(=O)[C@H](Cc1ccc(-c2ncc(-c3ccc(OCC(C)(C)C)cc3)cn2)cc1)NC(=O)c1ccc(C(C)(C)C)cc1)C(=O)O [Compound 726] in this work. An EC50 of 800 to 2500 nM was found for CC(C)Sc1ccc(-c2cnc(-c3ccc(C[C@H](NC(=O)c4ccc(C(C)(C)C)s4)C(=O)N[C@H](C)C(=O)O)cc3)nc2)cc1 [Compound 1035] in this work. An EC50 of 800 to 2500 nM was found for CCCCCCCOc1ccc(-c2cnc(-c3ccc(C[C@H](NC(=O)c4ccc(C(C)(C)C)cc4)C(=O)NC(Cc4cccnc4)C(=O)O)cc3)nc2)cc1 (stereo partly drawn) [Compound 541] in this work. An EC50 of 5000 to 10000 nM was found for CCCCCCCOc1ccc(-c2cnc(-c3ccc(C[C@H](NC(=O)c4ccc(C(C)(C)C)s4)C(=O)NCC4(O)CCN(C)C4)cc3)nc2)cc1 (stereo partly drawn) [Compound 894] in this work. An EC50 of 800 to 2500 nM was found for CCCCCCc1ccc(-c2cnc(-c3ccc(C[C@H](NC(=O)c4ccc(C(C)(C)C)cc4)C(=O)NCCC(=O)O)cc3)nc2)cc1 [Compound 678] in this work. An EC50 of 5000 to 10000 nM was found for C[C@@H](NC(=O)[C@H](Cc1ccc(-c2ncc(-c3ccc(C(C)(C)C#N)cc3F)cn2)cc1)NC(=O)c1ccc(C(C)(C)C)s1)C(=O)O [Compound 1018] in this work. An EC50 of less than 800 nM was found for CC1CCC(c2ccc(-c3cnc(-c4ccc(C[C@H](NC(=O)c5ccc(C(C)(C)C)s5)C(=O)N[C@H](C)C(=O)O)cc4)nc3)cc2)CC1 (stereo partly drawn) [Compound 1145] in this work. An EC50 of 2500 to 5000 nM was found for CCCCCCCOc1ccc(-c2cnc(-c3ccc(C(NC(=O)c4ccc(C(C)(C)C)cc4)C(=O)O)cc3)nc2)cc1 (stereo not drawn) [Compound 670] in this work. An EC50 of 2500 to 5000 nM was found for CCCCCCCOc1ccc(-c2cnc(-c3ccc(C[C@H](NC(=O)c4ccc(C(C)(C)C)cc4OCC)C(=O)N[C@H](C)C(=O)O)cc3)nc2)cc1 [Compound 836] in this work. An EC50 of 2500 to 5000 nM was found for CCCCCc1noc(-c2cnc(-c3ccc(C[C@H](NC(=O)c4ccc(C(C)(C)C)cc4)C(=O)NCCC(=O)O)cc3)nc2)n1 [Compound 753] in this work. An EC50 of 800 to 2500 nM was found for CC(C)CCc1noc(-c2cnc(-c3ccc(C[C@H](NC(=O)c4ccc(C(C)(C)C)cc4)C(=O)NCCC(=O)O)cc3)nc2)n1 [Compound 749] in this work. An EC50 of less than 800 nM was found for CCCCCCCc1ccc(-c2cnc(-c3ccc(C[C@H](NC(=O)c4ccc(C(C)(C)C)s4)C(=O)N[C@H](C)C(=O)O)cc3)nc2)cc1 [Compound 737] in this work. An EC50 of 5000 to 10000 nM was found for CCCCCCCOc1ccc2nc(-c3ccc(C[C@H](NC(=O)c4ccc(C(C)(C)C)cc4)C(=O)N4CC[C@H](C(=O)O)C4)cc3)ncc2c1 [Compound 810] in this work. An EC50 of 2500 to 5000 nM was found for CCCCCCCOc1ccc(-c2cnc(-c3ccc(C[C@H](NC(=O)c4ccc(CC(C)C)s4)C(=O)N4CC[C@H](C(=O)O)C4)cc3)nc2)cc1 [Compound 847] in this work. An EC50 of 5000 to 10000 nM was found for CCCCCCCOc1ccc(-c2cnc(-c3ccc(C[C@H](NC(=O)c4ccc(C(C)(C)C)cc4)C(=O)NC(C)CC(=O)O)cc3)nc2)cc1 (stereo partly drawn) [Compound 537] in this work. An EC50 of 800 to 2500 nM was found for CCCCCCCOc1ccc(-c2cnc(-c3ccc(C[C@H](NC(=O)c4ccc(C(C)(C)C)s4)C(=O)NCCCN(C)C)cc3)nc2)cc1 [Compound 962] in this work. An EC50 of less than 800 nM was found for CCCCCCCCOc1ccc(-c2cnc(-c3ccc(C[C@H](NC(=O)c4ccc(C(C)(C)C)s4)C(=O)N4CC(C(=O)O)C4)cc3)nc2)cc1 [Compound 778] in this work. An EC50 of 5000 to 10000 nM was found for CCCCC(=O)c1ccc(-c2cnc(-c3ccc(C[C@H](NC(=O)c4ccc(C(C)(C)C)s4)C(=O)N[C@H](C)C(=O)O)cc3)nc2)c(C)c1 [Compound 1014] in this work. An EC50 of 800 to 2500 nM was found for CCCc1ccc(-c2ccc(-c3cnc(-c4ccc(C[C@H](NC(=O)c5ccc(C(C)(C)C)s5)C(=O)N[C@H](C)C(=O)O)cc4)nc3)cc2)cc1 [Compound 1136] in this work. An EC50 of 2500 to 5000 nM was found for COc1ccc(-c2cnc(-c3ccc(C[C@H](NC(=O)c4ccc(C(C)(C)C)s4)C(=O)N[C@H](C)C(=O)O)cc3)nc2)c(F)c1OC1CCCC1 [Compound 1019] in this work. An EC50 of less than 800 nM was found for CCCCCCCOc1ccc(-c2cnc(-c3ccc(C[C@H](NC(=O)c4ccc(C(C)(C)C)cc4)C(=O)NCC(=O)NCC(=O)O)cc3)nc2)cc1 [Compound 444] in this work. An EC50 of 800 to 2500 nM was found for CCCCCCCOc1ccc(-c2cnc(-c3ccc(C[C@H](NC(=O)c4ccc(CCCC)cc4)C(=O)N4CCC[C@H]4C(=O)O)cc3)nc2)cc1 [Compound 1075] in this work.

From patent US10034886B2, “GLP-1 receptor modulators” (Celgene International II SÀRL, priority 2014, dated 2018)
